Tests used:
Assay type in all cases: in vivo, rat
[1] = tested on: dopamine in the nucleus accumbens (Nacs); experiment: Microdialysis of extraneuronal dopamine in the nucleus accumbens after VAB training (Example 1); details: rats trained in the Y-maze during chronic stress exposure and treated; for dopamine in the Nacs after the acute administration of cocaine vs control animals (FIGS. 3 and 4): cocaine 5 mg/kg IP
Description: Two days later, animals were implanted with microdialysis probes into the nucleus accumbens (Nacs) (Brain. Res. Protocols 5(1):16-24: 2000) and underwent dialysis on the next day.
Once the dopamine basal level had been reached, the rats were administered a single dose of cocaine 5 mg/kg IP in 0.1 ml volume of water, and dialysed within the next 60 minutes.

[2] = tested on: rats exposed to chronic stress; experiment: Escape test in rats exposed to unavoidable/chronic stress; details: for N0 of escapes After 8 days / N0 of escapes After stress + 3-week VAB training: ALCAR 10 mg/kg IP; for N0 of escapes After 8 days: BID or IMI 5 mg/kg BID plus chronic stress for 8 days; for N0 of escapes After stress + 3-week VAB training: BID or IMI 5 mg/kg BID, 8 days plus 3 weeks with stress on alternate days; for escape deficit induced by chronic stress: second experiment, end of 3-week training
Description: c) Stress: 10 rats were treated with physiological solution (1 ml/kg IP, BID) for 14 days. Then, the animals were exposed to the sequence of pre-test [with the pre-test, the animals were exposed to both unavoidable stress (electric shocks) of minimum intensity and duration, capable to induce a reliable modification of behaviour. Brain. Res. Protocols 7(1):11-20; 2001]; escape test [(also defined as “test”) carried out 24 hours after the pre-test, to assess the induced behaviour modification (Brain. Res. Protocols 7(1):11-20; 2001)]; Y- maze training and exposure to the chronic stress procedure on alternate days (maze one day, and stress the next day) for three weeks (Brain. Res. Protocols 7(1): 11-20; 2001), while continuing treatment with physiological solution;
d) acetyl L-carnitine+Stress: 10 rats were treated with acetyl L-carnitine (10 mg/kg, IP, BID) for 14 days. Then, animals were exposed to the sequence of: -pre-test; -test; -Y-maze training and simultaneously exposed to the chronic stress procedure on alternate days (maze one day, and stress the next day) for three weeks, while continuing treatment with acetyl L-camitine.
At the end of the VAB training, all the animals exposed to stress underwent the escape test (Brain. Res. Protocols 7(1):11-20; 2001).
(§1) f) Stress+VAB: the animals were exposed to the pre-test. Twenty-four hours later they were subjected to the escape test, and then exposed to the chronic stress procedure for 7 days. On day 9, they started their training in the Y-maze while exposed to stress on alternate days;
(§2) g) acetyl L-carnitine+Stress+VAB: the animals were exposed to the pre-test. Twenty-four hours later they underwent the escape test. Then, they were exposed to the protocol of chronic stress for 7 days, while receiving acetyl L-carnitine 10 mg/kg IP, BID for 8 days. On day 9, the rats started their VAB training in the Y-maze and exposure to stress on alternate days, while continuing treatment with the acetyl L-carnitine for 3 weeks;
(§3) h) IMI+Stress+VAB: the animals were exposed to the pre-test. Twenty-four hours later, they underwent the escape test, and then they were exposed to the chronic stress protocol for 7 days while receiving imipramine 5 mg/kg IP, BID for 8 days. On day 9, the rats started their training in the Y-maze and exposure to stress on alternate days, while continuing with IMI for 3 weeks.
At the end of the training period, all the animals underwent the escape test.

[3] = tested on: rats exposed to chronic stress; experiment: Acquisition of vanilla sugar-sustained appetitive behaviour (VAB) in the Y-maze during chronic stress; details: for No. of correct choices: rats, ALCAR 10 mg/kg IP, BID or IMI 5 mg/kg BID started after pre-test, chronic stress 8 days, then 3-week Y-maze training with stress on alternate days, mean ± standard error; for protection from negative effect of chronic stress on VAB acquisition: second experiment: chronic administration during exposure to stress and training in the Y-maze
Text: The anhedonia model is based on the observation that the fact of being exposed to a repeated unavoidable stress prevents the development of an appetitive behaviour induced and maintained by a highly palatable food (vanilla sugar) in rats fed ad libitum (Behav. Pharmacol. 8:619-628, 1997). […]
The Y-maze was made up of three wings. The vanilla sugar for the acquisition of the appetitive behaviour was in one of the two diverging wings (VAB training, 3 weeks).
e) VAB: the physiological solution was administered to the animals (1 ml/kg IP, BID) for 8 days, and then the rats were trained in the Y-maze for VAB acquisition while continuing the treatment with physiological solution for 3 weeks;
as §1, §2, §3

[4] = tested on: dopamine in the nucleus accumbens (Nacs); experiment: Microdialysis of dopamine in the Nacs after 7-day stress: basal, vanilla sugar meals, cocaine (Example 2); details: for Dopamine (max percentage increase) Meal 1 / Dopamine (max percentage increase) Meal 2: mean ± standard error of 10; for protection from the neurochemical effects resulting from a repeated exposure to stress: Example 2, IMI 5 mg/kg IP BID or FLX 5 mg/kg IP/die for 8 days with 7-day stress
Description: Sixty rats were divided in 6 groups of 10 animals each, as follows:
a) Control (Crt): the animals were administered physiological solution 1 ml/kg IP, BID for 8 days;
b) acetyl L-carnitine: the animals were administered acetyl L-carnitine 10 mg/kg IP, BID for 8 days;
c) Stress: the animals were exposed to the pre-test, they were tested for escape 24 hours later, and then they were exposed to the chronic stress protocol for 7 days, while receiving physiological solution (for 8 days);
d) acetyl L-carnitine+Stress: the animals were exposed to the pre-test, they were tested for escape 24 hours later, and then they were exposed to the chronic stress protocol for 7 days, while receiving acetyl L-carnitine 10 mg/kg IP, BID, for 8 days;
e) IMI+Stress: the animals were exposed to the pre-test, they were tested for escape 24 hours later, and then they were exposed to the chronic stress protocol for 7 days, while receiving IMI 5 mg/kg IP, BID for 8 days;
f) FLX+Stress: the animals were exposed to the pre-test, they were tested for escape 24 hours later, and then they were exposed to the chronic stress protocol for 7 days, while receiving FLX 5 mg/kg IP/die for 8 days.
On day 9, all the animals were implanted with dialysis probes in the Nacs; on day 10, the animals were dialysed.
The basal levels of dopamine were determined over 60 minutes.
At this point, the rats were offered 5 vanilla sugar pellets (Meal 1); 4 samples of dialysis fluid were taken over the next 60 minutes.
The rats were offered vanilla sugar one more time (Meal 2), and samples of dialysis fluid were taken over 60 minutes.
Finally, the rats were injected with cocaine 5 mg/kg IP, 0.1 ml in water and samples of dialysis fluid were taken over 60 minutes.

[5] = rats exposed to chronic stress for 7 days during ALCAR 10 mg/kg IP BID, IMI 5 mg/kg IP BID or FLX 5 mg/kg IP/die, 8 days, Nacs

Structure (SMILES)	basal levels of extraneuronal dopamine in the Nacs vs control animals (FIGS. 3 and 4) [1]	dopamine output levels in the Nacs vs control group [1]	dopamine in the Nacs after the acute administration of cocaine vs control animals (FIGS. 3 and 4) [1]	N0 of escapes After 8 days ([2]; rats, mean ± standard error)	N0 of escapes After stress + 3-week VAB training ([2]; rats, mean ± standard error)	No. of escapes 24 hours after the pre-test ([2]; rats, acetyl L-carnitine 10 mg/kg IP, BID for 14 days before pre-test, mean ± standard error)	No. of escapes After training for VAB and exposure to stress ([2]; rats, acetyl L-carnitine 10 mg/kg IP, BID, 14-day pre-treatment continued during 3-week VAB training and chronic stress, mean ± standard error)	escape deficit induced by chronic stress [2]	negative effect of chronic stress on VAB acquisition (FIGS. 1 and 2) ([3]; first experiment: 14-day pre-treatment 10 mg/kg IP BID, continued throughout training with chronic stress)	No. of correct choices [3]	protection from negative effect of chronic stress on VAB acquisition [3]	basal levels of dopamine in the Nacs vs control rats (FIGS. 5 and 6) ([4]; Example 2, 8-day treatment)	increase of dopamine in the Nacs after the acute administration of cocaine vs control rats ([4]; Example 2, 8-day treatment, cocaine 5 mg/kg IP)	Dopamine (max percentage increase) Meal 1 [4, 5] [%]	Dopamine (max percentage increase) Meal 2 [4, 5] [%]	increase in the output of dopamine after two consecutive vanilla sugar meals ([4]; rats exposed to stress and treated with acetyl L-carnitine, Nacs)	Dopamine (max percentage increase) Meal 1 ([4]; rats not exposed to stress, acetyl L-carnitine 10 mg/kg IP, BID 8 days, Nacs dialysate after first vanilla sugar meal) [%]	Dopamine (max percentage increase) Meal 2 ([4]; rats not exposed to stress, acetyl L-carnitine 10 mg/kg IP, BID 8 days, Nacs dialysate after second vanilla sugar meal) [%]	protection from the neurochemical effects resulting from a repeated exposure to stress [4]
CC(=O)O[C@H](CC(=O)[O-])C[N+](C)(C)C [ALCAR, acetyl L-carnitine]	significantly higher	superimposable to those observed in the control group	significantly higher	1.0 ± 0.5	22.4 ± 2.8	25.8 ± 2.5	26.4 ± 2.9	completely reversed	prevented such negative effect from occurring	7.6 ± 0.5	fully protected the rats from negative effect of chronic stress on VAB acquisition	significantly higher	significantly higher	286.4 ± 16.4	276.7 ± 18.6	approx 300%	35.7 ± 1.8	6.8 ± 5.1	–
CNCCC(Oc1ccc(C(F)(F)F)cc1)c1ccccc1 (stereo not shown) [FLX, fluoxetine, reference compound]	–	–	–	–	–	–	–	–	–	–	–	–	–	4.6 ± 4.2	3.6 ± 4.0	–	–	–	Neither the treatment with IMI nor the treatment with FLX were capable to protect
CN(C)CCCN1c2ccccc2CCc2ccccc21 [IMI, imipramine, reference compound]	significantly lower	–	significantly lower	2.5 ± 1.1	24.8 ± 1.0	–	–	completely reversed	–	2.9 ± 1.2	protected the rats from the negative effect of chronic stress on VAB acquisition	–	–	3.3 ± 2.3	4.1 ± 3.5	–	–	–	Neither the treatment with IMI nor the treatment with FLX were capable to protect
